Assay results taken from paper PMC9827809, “Identification of sitagliptin binding proteins by affinity purification mass spectrometry” (Acta Biochimica et Biophysica Sinica, 2022).

Experiments:
Format in all cases: binding
[1] = molecular target: T1, T-complex protein 1 subunit alpha (TCP1) (Homo sapiens, UniProt P17987, D88A); assay: SPR on mutant TCP1
T1 construct: TCP1 mutant D88A

[2] = molecular target: T2, T-complex protein 1 subunit alpha (TCP1) (Homo sapiens, UniProt P17987); assay: SPR (Biacore 8K, CM5 chip, immobilized protein); also SILAC AP-MS from HEK293T lysate
T2 construct: C-terminal Flag-His6 tag fused TCP1, expressed in E. coli BL21 (DE3)

[3] = molecular target: T3, lysophospholipase-like 1 (LYPLAL1) (Homo sapiens, UniProt Q5VWZ2); assay: as above
T3 construct: LYPLAL1 in pDEST15, expressed in E. coli BL21 (DE3)
T3 sequence (Q5VWZ2 2-237): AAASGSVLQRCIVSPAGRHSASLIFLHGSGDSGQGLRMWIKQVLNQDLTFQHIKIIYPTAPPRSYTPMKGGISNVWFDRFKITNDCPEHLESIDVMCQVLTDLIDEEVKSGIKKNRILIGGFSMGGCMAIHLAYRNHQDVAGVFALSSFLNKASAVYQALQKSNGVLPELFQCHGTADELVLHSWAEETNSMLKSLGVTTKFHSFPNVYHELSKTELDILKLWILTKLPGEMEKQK

[4] = molecular target: T4, cell cycle and apoptosis regulator protein 2 (CCAR2) (Homo sapiens, UniProt Q8N163); assay: as above
T4 construct: C-terminal Flag tag fused CCAR2 in pGEX-4T-1 (GST-tagged), expressed in E. coli BL21 (DE3)
T4 sequence (Q8N163 whole entry, the tested form may be a part): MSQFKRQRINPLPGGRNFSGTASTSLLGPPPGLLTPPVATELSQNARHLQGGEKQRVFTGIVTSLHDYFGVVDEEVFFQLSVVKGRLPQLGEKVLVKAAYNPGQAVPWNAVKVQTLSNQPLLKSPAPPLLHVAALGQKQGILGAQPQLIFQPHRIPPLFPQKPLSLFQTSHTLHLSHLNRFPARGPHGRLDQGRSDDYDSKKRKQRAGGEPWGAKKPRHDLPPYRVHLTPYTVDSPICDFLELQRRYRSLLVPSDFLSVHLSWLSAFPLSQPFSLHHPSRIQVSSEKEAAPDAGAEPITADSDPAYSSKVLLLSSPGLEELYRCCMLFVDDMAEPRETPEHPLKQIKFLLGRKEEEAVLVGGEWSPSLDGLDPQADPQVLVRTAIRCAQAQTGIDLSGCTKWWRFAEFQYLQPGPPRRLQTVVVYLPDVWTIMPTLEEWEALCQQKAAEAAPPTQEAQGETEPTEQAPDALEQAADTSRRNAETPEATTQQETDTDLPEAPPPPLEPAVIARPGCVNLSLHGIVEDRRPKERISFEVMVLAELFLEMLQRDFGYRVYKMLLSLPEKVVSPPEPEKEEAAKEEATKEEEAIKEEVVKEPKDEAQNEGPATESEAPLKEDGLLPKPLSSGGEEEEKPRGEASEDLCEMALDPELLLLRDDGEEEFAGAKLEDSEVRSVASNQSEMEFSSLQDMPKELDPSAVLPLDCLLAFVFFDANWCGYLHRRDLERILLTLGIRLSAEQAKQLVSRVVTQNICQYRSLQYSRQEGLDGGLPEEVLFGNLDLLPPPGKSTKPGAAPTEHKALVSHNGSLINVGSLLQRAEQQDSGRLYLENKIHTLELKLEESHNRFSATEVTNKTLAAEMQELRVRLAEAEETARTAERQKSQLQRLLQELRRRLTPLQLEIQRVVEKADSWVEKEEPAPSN

T2 sequence (P17987 whole entry, the tested form may be a part, one chain of several): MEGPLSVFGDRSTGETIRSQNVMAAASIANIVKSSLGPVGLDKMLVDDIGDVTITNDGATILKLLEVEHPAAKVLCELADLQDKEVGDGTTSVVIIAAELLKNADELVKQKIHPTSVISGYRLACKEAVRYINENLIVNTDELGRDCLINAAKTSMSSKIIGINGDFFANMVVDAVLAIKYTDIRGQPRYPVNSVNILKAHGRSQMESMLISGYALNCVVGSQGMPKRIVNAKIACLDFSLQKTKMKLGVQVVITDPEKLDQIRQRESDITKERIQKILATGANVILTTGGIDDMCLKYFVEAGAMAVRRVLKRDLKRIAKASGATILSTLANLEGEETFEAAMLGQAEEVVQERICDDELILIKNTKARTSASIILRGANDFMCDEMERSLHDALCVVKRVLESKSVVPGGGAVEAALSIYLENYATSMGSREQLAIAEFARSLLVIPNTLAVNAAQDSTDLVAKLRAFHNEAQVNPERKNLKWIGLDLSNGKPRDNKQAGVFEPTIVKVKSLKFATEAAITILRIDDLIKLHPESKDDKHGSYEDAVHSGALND
T1 sequence (P17987 whole entry D88A, one chain of several): as the sequence (P17987 whole entry, the tested form may be a part, one chain of several) above, with D88A counted along it

Kd [1]: 494 µM | Kd [2]: 50.1 µM | Kd [3]: 1440 µM | Kd [4]: 441 µM
Structure (SMILES): O=C(CCCC[C@@H]1SC[C@@H]2NC(=O)N[C@@H]21)NCCOCCOCCOCCOCCOCc1cn([C@@H](CC(=O)N2CCn3c(nnc3C(F)(F)F)C2)Cc2cc(F)c(F)cc2F)nn1 [biotin-PEG5-sitagliptin]
